# Starred links: 1 amine or outer side, 2 acyl side, 3 side chain; linkers in the order of their positions; H or OH if unused. Positions of bridges follow the written chain, without caps; N, C: chain ends. Non-standard residues stand in square brackets, D forms with d. Residues, ends and D or L forms follow the SMILES beside them. Groups on a side chain read outwards from the residue. ξ: configuration not given here. *: point of attachment. X17 = CSC[C@H](N)C(=O)NC(C)C(N[*:1])C(=O)[*:2]; ξAbu(βξ-NH2) = CC(N[*:3])C(N[*:1])C(=O)[*:2]; Pentadecanoyl = CCCCCCCCCCCCCCC(=O)*; ξAsp(βξ-Me) = CC(C(=O)O)C(N)C(=O)O; Dab = NCC[C@H](N)C(=O)O; ξD = NC(CC(=O)O)C(=O)O; ξPip = O=C(O)C1CCCCN1; ξV = CC(C)C(N)C(=O)O; ξP = O=C(O)C1CCCN1; GABA = NCCCC(=O)O; Sar = CNCC(=O)O
# Tested on: Staphylococcus aureus (MSSA)
# Settings: 24 h
# How it was run: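 Broth microdilution MIC per NCCLS M7-A6 with doubling serial dilutions, in cation-adjusted Mueller-Hinton broth supplemented with 0.625 mM calcium.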
row,MIC [µg/mL],Compound
1,8,"CCCCCCCCCCCCCCC(=O)NC(CC(=O)O)C(=O)NC1C(=O)N2CCCCC2C(=O)NC(C(C)C(=O)O)C(=O)NC(CC(=O)O)C(=O)NCC(=O)NC(CC(=O)O)C(=O)NCC(=O)NC(C(C)NC(=O)CCNC(=O)[C@@H](N)CCCCN)C(=O)NC(C(C)C)C(=O)N2CCCC2C(=O)NC1C (stereo partly drawn) [Compound 155, C15-Amphomycin-9-(β-Ala)-Lys]"
2,1,"CCCCCCCCCCCCCCC(=O)NC(CC(=O)O)C(=O)NC1C(=O)N2CCCCC2C(=O)NC(C(C)C(=O)O)C(=O)NC(CC(=O)O)C(=O)NCC(=O)NC(CC(=O)O)C(=O)NCC(=O)NC(C(C)NC(=O)CCCNC(=O)[C@@H](N)CCCCN)C(=O)NC(C(C)C)C(=O)N2CCCC2C(=O)NC1C (stereo partly drawn) [Compound 156, C15-Amphomycin-9-GABA-Lys]"
3,4 to 8,"CCCCCCCCCCCCCCC(=O)NC(CC(=O)O)C(=O)NC1C(=O)N2CCCCC2C(=O)NC(C(C)C(=O)O)C(=O)NC(CC(=O)O)C(=O)NCC(=O)NC(CC(=O)O)C(=O)NCC(=O)NC(C(C)NC(=O)CNC(=O)[C@@H](N)CN)C(=O)NC(C(C)C)C(=O)N2CCCC2C(=O)NC1C (stereo partly drawn) [Compound 157, C15-Amphomycin-9-Gly-Dap]"
4,1 to 2,"CCCCCCCCCCCCCCC(=O)NC(CC(=O)O)C(=O)NC1C(=O)N2CCCCC2C(=O)NC(C(C)C(=O)O)C(=O)NC(CC(=O)O)C(=O)NCC(=O)NC(CC(=O)O)C(=O)NCC(=O)NC(C(C)NC(=O)CNC(=O)[C@@H](N)CCCCCN)C(=O)NC(C(C)C)C(=O)N2CCCC2C(=O)NC1C (stereo partly drawn) [Compound 158, C15-Amphomycin-9-Gly-hLys]"
5,0.5 to 1,"CCCCCCCCCCCCCCC(=O)NC(CC(=O)O)C(=O)NC1C(=O)N2CCCCC2C(=O)NC(C(C)C(=O)O)C(=O)NC(CC(=O)O)C(=O)NCC(=O)NC(CC(=O)O)C(=O)NCC(=O)NC(C(C)NC(=O)CCCNC(=O)[C@@H](N)CCN)C(=O)NC(C(C)C)C(=O)N2CCCC2C(=O)NC1C (stereo partly drawn) [Compound 159, C15-Amphomycin-9-GABA-gDab] (Pentadecanoyl-[ξD][ξAbu(βξ-NH2)][ξPip][ξAsp(βξ-Me)][ξD]G[ξD]G[ξAbu(βξ-NH2)]([GABA-Dab])[ξV][ξP]; lactam 2-C)"
6,8,"CCCCCCCCCCCCCCC(=O)NC(CC(=O)O)C(=O)NC1C(=O)N2CCCCC2C(=O)NC(C(C)C(=O)O)C(=O)NC(CC(=O)O)C(=O)NCC(=O)NC(CC(=O)O)C(=O)NCC(=O)NC(C(C)NC(=O)C(C)(C)N)C(=O)NC(C(C)C)C(=O)N2CCCC2C(=O)NC1C (stereo not drawn) [Compound 161, C15-Amphomycin-9-Aib]"
7,8,"CCCCCCCCCCCCCCC(=O)NC(CC(=O)O)C(=O)NC1C(=O)N2CCCCC2C(=O)NC(C(C)C(=O)O)C(=O)NC(CC(=O)O)C(=O)NCC(=O)NC(CC(=O)O)C(=O)NCC(=O)NC(C(C)NC(=O)[C@@H](N)CSC)C(=O)NC(C(C)C)C(=O)N2CCCC2C(=O)NC1C (stereo partly drawn) [Compound 162, C15-Amphomycin-9-MeCys] (Pentadecanoyl-[ξD][ξAbu(βξ-NH2)][ξPip][ξAsp(βξ-Me)][ξD]G[ξD]G[X17][ξV][ξP]; lactam 2-C)"

# The next lines start with the compound.
row,Compound,MIC [µg/mL]
1,"CCCCCCCCCCCCCCC(=O)NC(CC(=O)O)C(=O)NC1C(=O)N2CCCCC2C(=O)NC(C(C)C(=O)O)C(=O)NC(CC(=O)O)C(=O)NCC(=O)NC(CC(=O)O)C(=O)NCC(=O)NC(C(C)NC(=O)CN(C)C(=O)[C@@H](N)CCCN)C(=O)NC(C(C)C)C(=O)N2CCCC2C(=O)NC1C (stereo partly drawn) [Compound 144, C15-Amphomycin-9-Sar-Orn]",4
2,"CCCCCCCCCCCCCCC(=O)NC(CC(=O)O)C(=O)NC1C(=O)N2CCCCC2C(=O)NC(C(C)C(=O)O)C(=O)NC(CC(=O)O)C(=O)NCC(=O)NC(CC(=O)O)C(=O)NCC(=O)NC(C(C)NC(=O)CN(C)C(=O)[C@@H](N)CCN)C(=O)NC(C(C)C)C(=O)N2CCCC2C(=O)NC1C (stereo partly drawn) [Compound 145, C15-Amphomycin-9-Sar-gDab] (Pentadecanoyl-[ξD][ξAbu(βξ-NH2)][ξPip][ξAsp(βξ-Me)][ξD]G[ξD]G[ξAbu(βξ-NH2)]([Sar-Dab])[ξV][ξP]; lactam 2-C)",2
3,"CCCCCCCCCCCCCCC(=O)NC(CC(=O)O)C(=O)NC1C(=O)N2CCCCC2C(=O)NC(C(C)C(=O)O)C(=O)NC(CC(=O)O)C(=O)NCC(=O)NC(CC(=O)O)C(=O)NCC(=O)NC(C(C)NC(=O)CN(C)C(=O)[C@@H](N)CN)C(=O)NC(C(C)C)C(=O)N2CCCC2C(=O)NC1C (stereo partly drawn) [Compound 146, C15-Amphomycin-9-Sar-Dap]",2
4,"CCCCCCCCCCCCCCC(=O)NC(CC(=O)O)C(=O)NC1C(=O)N2CCCCC2C(=O)NC(C(C)C(=O)O)C(=O)NC(CC(=O)O)C(=O)NCC(=O)NC(CC(=O)O)C(=O)NCC(=O)NC(C(C)NC(=O)CCNC(=O)[C@@H](N)CCCN)C(=O)NC(C(C)C)C(=O)N2CCCC2C(=O)NC1C (stereo partly drawn) [Compound 148, C15-Amphomycin-9-(β-Ala)-Orn]",0.5 to 1
5,"CCCCCCCCCCCCCCC(=O)NC(CC(=O)O)C(=O)NC1C(=O)N2CCCCC2C(=O)NC(C(C)C(=O)O)C(=O)NC(CC(=O)O)C(=O)NCC(=O)NC(CC(=O)O)C(=O)NCC(=O)NC(C(C)NC(=O)[C@H]2CCCN2C(=O)[C@H](N)CCCCN)C(=O)NC(C(C)C)C(=O)N2CCCC2C(=O)NC1C (stereo partly drawn) [Compound 151, C15-Amphomycin-9-(D-Pro)-(D-Lys)]",16
6,"CCCCCCCCCCCCCCC(=O)NC(CC(=O)O)C(=O)NC1C(=O)N2CCCCC2C(=O)NC(C(C)C(=O)O)C(=O)NC(CC(=O)O)C(=O)NCC(=O)NC(CC(=O)O)C(=O)NCC(=O)NC(C(C)NC(=O)CNC(=O)[C@@H](N)CCCN)C(=O)NC(C(C)C)C(=O)N2CCCC2C(=O)NC1C (stereo partly drawn) [Compound 153, C15-Amphomycin-9-Gly-Orn]",2
7,"CCCCCCCCCCCCCCC(=O)NC(CC(=O)O)C(=O)NC1C(=O)N2CCCCC2C(=O)NC(C(C)C(=O)O)C(=O)NC(CC(=O)O)C(=O)NCC(=O)NC(CC(=O)O)C(=O)NCC(=O)NC(C(C)NC(=O)CNC(=O)[C@@H](N)CCN)C(=O)NC(C(C)C)C(=O)N2CCCC2C(=O)NC1C (stereo partly drawn) [Compound 154, C15-Amphomycin-9-Gly-gDab]",4

# Same assay, conditions: S. aureus (MSSA), CAMHB supplemented with 0.625 mM calcium, 24 hours at about 37° C.; a range = compound tested multiple times
row,MIC,Compound
1,136/4 μg/mL,"CCCCCCCCCCCCC(=O)NC(CC(=O)O)C(=O)NC1C(=O)N2CCCCC2C(=O)NC(C(C)C(=O)O)C(=O)NC(CC(=O)O)C(=O)NCC(=O)NC(CC(=O)O)C(=O)NCC(=O)NC(C(C)NC(=O)[C@@H](N)CN)C(=O)NC(C(C)C)C(=O)N2CCCC2C(=O)NC1C (stereo partly drawn) [Compound 136, C13-Amphomycin-9-Dap]"
2,140/32 μg/mL,"CCCCCCCCCCCCCC(=O)NC(CC(=O)O)C(=O)NC1C(=O)N2CCCCC2C(=O)NC(C(C)C(=O)O)C(=O)NC(CC(=O)O)C(=O)NCC(=O)NC(CC(=O)O)C(=O)NCC(=O)NC(C(C)NC(=O)[C@@H](N)CN)C(=O)NC(C(C)C)C(=O)N2CCCC2C(=O)NC1C (stereo partly drawn) [Compound 140, C14-Amphomycin-9-Dap]"
3,141/2 μg/mL,"CCCCCCCCCCCCCCCC(=O)NC(CC(=O)O)C(=O)NC1C(=O)N2CCCCC2C(=O)NC(C(C)C(=O)O)C(=O)NC(CC(=O)O)C(=O)NCC(=O)NC(CC(=O)O)C(=O)NCC(=O)NC(C(C)NC(=O)CNC(=O)[C@@H](N)CCCCN)C(=O)NC(C(C)C)C(=O)N2CCCC2C(=O)NC1C (stereo partly drawn) [Compound 141, C16-Amphomycin-9-Gly-Lys]"
4,143/2-4 μg/mL,"CCCCCCCCCCCC(=O)NC(CC(=O)O)C(=O)NC1C(=O)N2CCCCC2C(=O)NC(C(C)C(=O)O)C(=O)NC(CC(=O)O)C(=O)NCC(=O)NC(CC(=O)O)C(=O)NCC(=O)NC(C(C)NC(=O)CNC(=O)[C@@H](N)CCCCN)C(=O)NC(C(C)C)C(=O)N2CCCC2C(=O)NC1C (stereo partly drawn) [Compound 143, C12-Amphomycin-9-Gly-Lys]"

# Source: patent publication US7868135B2, “Compositions of lipopeptide antibiotic derivatives and methods of use thereof” (priority 2003, dated 2011)
